Converted amounts (≈) assume the structure as drawn.
Assays:
Type in all cases: cell-based
[1] = system: HeLa (human cervical cancer cells); assay: Inhibition of proliferation of tumor cell lines (MTT), HeLa; conditions: Homo sapiens, 72 h, read-out: IC50 value of compound for inhibition of proliferation of tumor cell lines, HeLA
Procedure: (§1) In this example, the inhibitory activity of compounds of the present invention against proliferation of seven human tumor cell lines and mouse B16-F10 melanoma cells was tested in vitro, and the IC50 value (50% inhibitory concentration) of compounds against each tumor cell line was calculated.
(§2) The seven human tumor cell lines are: MCF-7 (human breast cancer cells), LOVO (human colon cancer cells), A549 (human lung cancer cells), BGC-823 (human gastric cancer cells), SMMC-7721 (human liver cancer cells), K562 (human leukemia cells), and HeLa (human cervical cancer cells).
(§3) IC50 values of the compounds for A549, BGC-823, LOVO, MCF-7, SMMC-7721, HeLa, and B16-F10 cells were tested. The above cells were routinely cultured in 1640 nutrient solution containing 10% calf serum, with passage for 1 time every 2 days, and the cells in logarithmic growth phase were taken for experiments. After the A549, BGC-823, LOVO, MCF-7, SMMC-7721, HeLa and B16-F10 cells in logarithmic growth phase were subjected to 0.25% trypsin digestion, they were blown into a single cell suspension, and then the cell concentration was adjusted to about 1×10^5·mL^−1 using RPMI 1640 solution containing 10% calf serum. The cells were seeded in a 96-well culture plate at 100 μL per well, and cultured for 24 hours until the cells were attached. K562 cells were taken and centrifuged and diluted into 2×10^5·mL^−1 single cell suspension with RPMI 1640 solution containing 10% calf serum, and inoculated into a 96-well culture plate at 100 μL per well.
(§4) 100 μL of sample solution with different concentrations to be tested were added to the above 96-well plate, each concentration was added to 4 wells in parallel, and the cell control group was added with an equal volume of RPMI 1640 medium containing 10% calf serum to make a reaction volume of 200 μL. After incubating in an incubator at 37° C., 5% CO2 for 72 h, 10 μL of 5 mg·mL^−1 MTT solution was added to each well, and incubated at 37° C. for 4 h. The supernatant was carefully aspirated, 180 μL of DMSO was added to each well followed by shaking, and the absorbance (OD) value was measured at 570 nm on the microplate reader. The inhibition rate was calculated, and regression equation was established with the logarithmic value of the sample concentration and the inhibition rate (IR) to find the IC50 value of the compound against the cells to be tested. IR (%)=(1−OD value of the experimental group/OD value of the cell control group)×100%

[2] = system: A549 (human lung cancer cells); assay: Inhibition of proliferation of tumor cell lines (MTT), A549; conditions: Homo sapiens, A549, 72 h, read-out: IC50 value of compound for inhibition of proliferation of tumor cell lines, A549
Procedure: as §1, §2, §3, §4

[3] = system: BGC-823 (human gastric cancer cells); assay: Inhibition of proliferation of tumor cell lines (MTT), BGC-823; conditions: Homo sapiens, BGC-823, 72 h, read-out: IC50 value of compound for inhibition of proliferation of tumor cell lines, BGC-823
Procedure: as §1, §2, §3, §4

[4] = system: LOVO (human colon cancer cells); assay: Inhibition of proliferation of tumor cell lines (MTT), LOVO; conditions: Homo sapiens, 72 h, read-out: IC50 value of compound for inhibition of proliferation of tumor cell lines, LOVO
Procedure: as §1, §2, §3, §4

[5] = system: K562 (human leukemia cells); assay: Inhibition of proliferation of tumor cell lines (MTT), K562; conditions: Homo sapiens, K562, 72 h, read-out: IC50 value of compound for inhibition of proliferation of tumor cell lines, K562
Procedure: as §1, §2, §3, §4

[6] = system: SMMC-7721 (human liver cancer cells); assay: Inhibition of proliferation of tumor cell lines (MTT), SMMC-7721; conditions: Homo sapiens, SMMC-7721, 72 h, read-out: IC50 value of compound for inhibition of proliferation of tumor cell lines, SMMC-7721
Procedure: as §1, §2, §3, §4

[7] = system: MCF-7 (human breast cancer cells); assay: Inhibition of proliferation of tumor cell lines (MTT), MCF-7; conditions: Homo sapiens, MCF7, MCF-7, 72 h, read-out: IC50 value of compound for inhibition of proliferation of tumor cell lines, MCF-7
Procedure: as §1, §2, §3, §4

[8] = system: neutrophilic granulocytes; assay: Neutrophil oxidative burst (luminol chemiluminescence); conditions: Neutrophil; 3 μg/mL; rat neutrophils; (Csample−Ccontrol)/Ccontrol×100%; read-out: Efficiency of compounds in stimulating neutrophil oxidative burst
Procedure: This example investigated the effect of compound on neutrophil oxidative burst and calculated the efficiency of each compound in stimulating neutrophil oxidative burst.
Blood was taken from the abdominal aorta of rat. The neutrophilic granulocytes were isolated by the operational procedure of the rat peripheral blood neutrophil isolation kit. The neutrophilic granulocytes were re-suspended by Hanks, and were plated in a 96-well white plate at 1×10^5 cells/well, 80 μL/well; 1 mM of Luminol was added at 10 μL/well; 10 μL of the sample was added to each well, and the degree of oxidative burst was evaluated by chemiluminescence. Calculation formula of Efficiency: Efficiency (%)=(Csample−Ccontrol)/Ccontrol×100%

[9] = system: release of IL-8 by human keratinocytes (HaCaT); assay: Release of IL-8 by human keratinocytes (HaCaT), IL-8 Elisa; conditions: Homo sapiens, HaCaT; 1 μg/mL; 24 h; (Csample−Ccontrol)/Ccontrol×100%; read-out: Efficiency of compound in stimulating the release of IL-8 by HaCaT cells
Procedure: This Example investigated the effect of compound on release of IL-8 by human keratinocytes (HaCaT) and calculated the efficiency of each compound in stimulating the release of IL-8 by human keratinocytes (HaCaT).
Hacat cells were cultured in MEM+10% FBS under the conditions of 37° C., 5% CO2, and when the cells reached 80-95% fusion, they were inoculated into a 96-well culture plate (1×10^4 cells/well) at 100 μL/well, and incubated for 18-24 h. The supernatant was discarded and the cells were incubated for 3-6 h in 1% FBS medium. Different concentrations of the sample solution of compound to be tested were added to each well, and the cell control group was added with an equal volume of 1% FBS medium at 10 μL/well, and incubated for 24 h. The supernatant was taken and tested according to the operation sequence of the IL-8 Elisa kit. Calculation formula of Efficiency: Efficiency (%)=(Csample−Ccontrol)/Ccontrol×100%

[10] = system: mouse B16-F10 melanoma cells; assay: Inhibition of proliferation of tumor cell lines (MTT), B16-F10; conditions: Mus musculus, B16-F10, 72 h, read-out: IC50 value of compound for inhibition of proliferation of tumor cell lines, B16-F10
Procedure: as §1, §3, §4

CCCCCCCCCCCC(=O)O[C@@]12C[C@@H](C)[C@]34C=C(C)[C@H](O)[C@@]3(O)[C@H](O)C3(COC(=O)C(C)C(C)C)OC3[C@H](C4=O)[C@@H]1C2(C)C (stereo partly shown) [Compound 1f, 6,7-epoxy-20-O-(2,3-dimethylbutyryl)-13-O-dodecanoyl-ingenol]
IC50 [1]: 16.8 µg/mL (≈ 25.4 µM)

CCCCCCCCCCCC(=O)O[C@@]12C[C@@H](C)[C@]34C=C(C)[C@H](O)[C@@]3(O)[C@@H]3OC(C)(C)OCC3=C[C@H](C4=O)[C@@H]1C2(C)C [Compound 2b, 13-O-dodecanoyl-ingenol 5,20-acetonide]
IC50 [2]: 15 µg/mL (≈ 25.6 µM) | IC50 [3]: 17.8 µg/mL (≈ 30.3 µM) | IC50 [4]: 23 µg/mL (≈ 39.2 µM) | IC50 [5]: 0.85 µg/mL (≈ 1.45 µM) | IC50 [6]: 15.2 µg/mL (≈ 25.9 µM) | IC50 [7]: 13.7 µg/mL (≈ 23.3 µM)

CCCCCCCCCCCC(=O)O[C@@]12C[C@@H](C)[C@]34C=C(C)[C@@H]5OC(C)(C)O[C@@]53[C@H](O)C(CO)=C[C@H](C4=O)[C@@H]1C2(C)C [Compound 2c, 13-O-dodecanoyl-ingenol 3,4-acetonide]
IC50 [2]: 9.59 µg/mL (≈ 16.3 µM) | IC50 [3]: 5.3 µg/mL (≈ 9.03 µM) | IC50 [4]: 10.3 µg/mL (≈ 17.6 µM) | IC50 [5]: 0.42 µg/mL (≈ 0.716 µM) | IC50 [6]: 8.21 µg/mL (≈ 14 µM) | IC50 [7]: 8.89 µg/mL (≈ 15.1 µM) | activation at 3 µg/mL [8]: 64.6%

C/C=C(/C)C(=O)O[C@H]1C(C)=C[C@]23C(=O)[C@@H](C=C(CO)[C@@H](O)[C@]12O)[C@@H]1C(C)(C)[C@]1(O)C[C@H]3C [Compound 3, 3-O-angeloyl-13-hydroxy-ingenol]
activation at 3 µg/mL [8]: 65% | activation at 1 µg/mL [9]: 23.8%

CCCCCC(=O)O[C@@]12C[C@@H](C)[C@]34C=C(C)[C@H](O)[C@@]3(O)[C@H](O)C(CO)=C[C@H](C4=O)[C@@H]1C2(C)C [Compound 6, 13-O-n-hexanoyl-ingenol]
activation at 3 µg/mL [8]: 52.2%

CCCCCCCC(=O)O[C@@]12C[C@@H](C)[C@]34C=C(C)[C@H](O)[C@@]3(O)[C@H](O)C(CO)=C[C@H](C4=O)[C@@H]1C2(C)C [Compound 7, 13-O-n-octanoyl-ingenol]
IC50 [2]: 29.7 µg/mL (≈ 60.5 µM) | IC50 [3]: 25.1 µg/mL (≈ 51.2 µM) | IC50 [4]: 24.1 µg/mL (≈ 49.1 µM) | IC50 [5]: 1.72 µg/mL (≈ 3.51 µM) | IC50 [6]: 16 µg/mL (≈ 32.6 µM) | IC50 [7]: 16.2 µg/mL (≈ 33 µM) | IC50 [1]: 29.3 µg/mL (≈ 59.7 µM) | IC50 [10]: 38.4 µg/mL (≈ 78.3 µM) | activation at 3 µg/mL [8]: 45%

CCCCCCCCCC(=O)O[C@@]12C[C@@H](C)[C@]34C=C(C)[C@H](O)[C@@]3(O)[C@H](O)C(COC(=O)C(C)C(C)C)=C[C@H](C4=O)[C@@H]1C2(C)C (stereo partly shown) [Compound 14, 20-O-(2,3-dimethylbutyryl)-13-O-decanoyl-ingenol]
activation at 3 µg/mL [8]: 62.8% | activation at 1 µg/mL [9]: 22.6%

C/C=C(/C)C(=O)OCC1=C[C@@H]2C(=O)[C@]3(C=C(C)[C@H](OC(=O)/C(C)=C\C)[C@@]3(O)[C@@H]1O)[C@H](C)C[C@]1(OC(=O)CCCCCCCCCCC)[C@H]2C1(C)C [Compound 15a, 3,20-O-diangeloyl-13-O-dodecanoyl-ingenol]
IC50 [2]: > 100 µg/mL | IC50 [3]: > 100 µg/mL | IC50 [4]: > 100 µg/mL | IC50 [5]: 3.22 µg/mL (≈ 4.53 µM) | IC50 [6]: 26.9 µg/mL (≈ 37.8 µM) | IC50 [7]: > 100 µg/mL

— patent publication US11753363B2, “13-oxidized ingenol derivative and use thereof” (Tianjin Pharmaceutical Da Ren Tang Group Corp., Ltd. …, priority 2017, dated 2023)
